2 compounds from patent US20150150995A1, “CONJUGATED ANTI-MICROBIAL COMPOUNDS AND CONJUGATED ANTI-CANCER COMPOUNDS AND USES THEREOF” (PONO CORPORATION, priority 2012, published 2015) can be followed below.

Structures can show the parent of a compound that is named as a salt. Where two headings read alike, the source gives them in different places.

Experiment [1] deals with carbapenem-resistant enterobacteriaceae (CRE). In words: Minimum inhibitory concentration (MIC) test against CRE. The class given is cell-based. The settings on record: drug resistant gram negative bacterium. As to the method:
(§1) This complex can be easily compared to the cefazolin sodium salt by testing the minimum inhibitory concentration (MIC). Initial tests were performed against a drug resistant gram negative bacterium; carbapenem-resistant enterobacteriaceae (CRE) and a drug resistant gram positive bacterium; methicillin-resistant staphylococcus aureus (MRSA). […] By transforming the cefazolin sodium salt into a silver complex, it changes the antibiotic that CRE and MRSA are resistant to, to a compound that CRE and MRSA are susceptible to. Thus, in several embodiments, the compositions provided for herein lead to a heretofore unseen efficacy against drug-resistant microorganisms.

The test system of experiment [2] is methicillin-resistant staphylococcus aureus (MRSA). In words: Minimum inhibitory concentration (MIC) test against MRSA. The class given is cell-based. The method, then:
as §1

In general, MIC refers to the lowest concentration that inhibits growth of the organism.

Take `Cc1nnc(SCC2=C(C(=O)O)N3C(=O)[C@@H](NC(=O)Cn4cnnn4)[C@H]3SC2)s1` [cefazolin sodium salt, Cefazolin sodium salt]: the MIC in experiment [1] (read-out: MIC) was over 256 µg/mL; in experiment [2] (Staphylococcus aureus), 256 µg/mL.
As for cefazolin silver complex, the MIC in experiment [1] and in experiment [2] (drug resistant gram positive bacterium) was 4 µg/mL throughout.
